# Reference: patent publication US4937263A, “Antihypercholesterolemic compounds” (Merck & Co., Inc., priority 1989, dated 1990)
# System: HMG-CoA reductase
# Experiment: HMG-CoA Reductase Inhibition Assay (in vitro, intrinsic inhibition)
# Format: biochemical
# Settings: IC50 of test compound compared with compactin determined simultaneously, compactin assigned 100; tested as sodium salt of dihydroxy acid form; solubilized rat liver microsomal enzyme
# Protocol: The intrinsic HMG-CoA reductase inhibition activity of the claimed compounds is measured in the in vitro protocol published in J. Med. Chem., 28, p. 347-358 (1985) and described below:
# Male Holtzman Sprague-Dawley rats (225-250 g) were kept on reversed lighting and fed Purina rat chow containing 3% cholestyramine for 7 days preceding their sacrifice by CO2 asphyxiation. Livers were removed 6 hours into the dark cycle and used immediately to prepare microsomes. HMG-CoA reductase was solubilized from the freshly prepared microsome by the method of Heller and Shrewsbury [J. Biol. Chem., 1976, 251, 3815] and purified through the second ammonium sulfate precipitation step as described by Kleinsek et al. [Proc. Natl. Acad. Sci. U.S.A., 1977, 74, 1431]. The enzyme preparation was tested for HMG-CoA reductase potency and diluted with 100 mM phosphate buffer (pH 7.2) so that 100 μl of the enzyme solution, when added to the assay control, gave a value of 50,000-60,000 dpm. The enzyme preparation was stored at -80° C.
# The assay is essentially the procedure of Shefer et al. [J. Lipid Res., 1972, 13, 402]. The complete assay medium contained the following in a total volume of 0.8 ml: phosphate buffer, pH 7.2, 100 mM; MgCl2, 3 mM; NADP, 3 mM; glucose 6-phosphate, 10 mM; glucose-6-phosphate dehydrogenase, 3 enzyme units; reduced glutathione, 50 mM; HMG-CoA (glutaryl-3-^14 C., New England Nuclear), 0.2 mM (0.1 μCi); and partially purified enzyme stock solution, 100 μL.
# Test compounds or compactin (after first being converted to the sodium salt of their dihydroxy acid form in situ by addition of IN NaOH (1 equivalent) were added to the assay system in 10 μL volumes at multiconcentration levels. After a 40 minute incubation at 37° C. with shaking and, exposure to air, the reaction was stopped by the addition of 0.4 mL of 8 N HCl. After an additional 30-minute incubation period at 37° C. to ensure the complete lactonization of mevalonic acid to mevalonolactone, 0.2 ml of the mixture was added to an 0.5×5.0 cm column containing 100-200 mesh Bio-Rex 5,chloride form (Bio-Rad), wetted with distilled water, as described by Alberts et al [J. Proc. Natl. Acad. Sci. U.S.A., 1980, 77, 3967]. The unreacted [^14 C]HMG-CoA was absorbed on the resin and the [^14 C]mevalonolactone was eluted with distilled water (2×1 ml) directly into 7-ml scintillation vials. Five milliliters of Aquasol-2 (New England Nuclear) was added to each vial, and radioactivity was measured in a Packard Tri Carb Prias scintillation counter. IC50 values were determined by plotting percentage inhibition against test compound concentration and fitting a straight line to the resulting data by using the least squares method. For estimation of relative inhibitory potencies, compactin was assigned a value of 100 and the IC50 value of the test compound was compared with that of compactin determined simultaneously.
row,Compound,Relative Potency
1,C[C@H]1C=C2C=C[C@H](C)[C@H](CC[C@@H](O)C[C@@H](O)CC(=O)O)[C@H]2[C@@H](OC(=O)C(C)(C)CCc2ccccc2)C1,100
2,C[C@H]1C=C2C=C[C@H](C)[C@H](CC[C@@H](O)C[C@@H](O)CC(=O)O)[C@H]2[C@@H](OC(=O)C(C)(C)Cc2ccc(O)cc2)C1,280
3,C[C@H]1C=C2C=C[C@H](C)[C@H](CC[C@@H](O)C[C@@H](O)CC(=O)O)[C@H]2[C@@H](OC(=O)C(C)(C)c2cccc(O)c2)C1,197
4,C[C@H]1C=C2C=C[C@H](C)[C@H](CC[C@@H](O)C[C@@H](O)CC(=O)O)[C@H]2[C@@H](OC(=O)C(C)(C)Cc2ccccc2)C1,173
5,C[C@H]1C=C2C=C[C@H](C)[C@H](CC[C@@H](O)C[C@@H](O)CC(=O)O)[C@H]2[C@@H](OC(=O)C(C)(C)c2ccccc2)C1,88
6,C[C@H]1C=C2C=C[C@H](C)[C@H](CC[C@@H](O)C[C@@H](O)CC(=O)O)[C@H]2[C@@H](OC(=O)C(C)(C)c2ccc(O)c(F)c2)C1,217
7,C[C@H]1C=C2C=C[C@H](C)[C@H](CC[C@@H](O)C[C@@H](O)CC(=O)O)[C@H]2[C@@H](OC(=O)C(C)(C)Cc2cc(O)cc(O)c2)C1,333

# Now from value to compound:
row,Relative Potency,Compound
1,36,C[C@H]1C=C2C=C[C@H](C)[C@H](CC[C@@H](O)C[C@@H](O)CC(=O)O)[C@H]2[C@@H](OC(=O)C(C)(C)c2ccc(CO)cc2)C1
2,144,COc1ccc(C(C)(C)C(=O)O[C@H]2C[C@@H](C)C=C3C=C[C@H](C)[C@H](CC[C@@H](O)C[C@@H](O)CC(=O)O)[C@H]32)cc1
3,47,CCOc1ccc(C(C)(C)C(=O)O[C@H]2C[C@@H](C)C=C3C=C[C@H](C)[C@H](CC[C@@H](O)C[C@@H](O)CC(=O)O)[C@H]32)cc1
4,217,C[C@H]1C=C2C=C[C@H](C)[C@H](CC[C@@H](O)C[C@@H](O)CC(=O)O)[C@H]2[C@@H](OC(=O)C(C)(C)c2ccc(O)cc2)C1
